Values of other authors as cited in patent publication US10391176B2, “Composition, its preparation and method of use in treating skin disorders” (priority 2016, dated 2019).

COc1cc(C(=O)NS(=O)(=O)c2ccccc2C)ccc1Cc1cn(C)c2ccc(NC(=O)OC3CCCC3)cc12 [Zafirlukast, 4-(5-cyclopentyloxy-carbonylamino-1-methyl-indol-3-ylmethyl)-3-methoxy-N-o-tolylsulfonylbenzamide]
solubility in acetone (acetone): freely soluble | solubility in dimethylsulfoxide (dimethylsulfoxide): freely soluble | solubility in methanol (methanol): slightly soluble | solubility in tetrahydrofuran (tetrahydrofuran): freely soluble | solubility in water (water): practically insoluble
